These results are taken from ChEMBL document CHEMBL2346567, “Selective aminopeptidase-N (CD13) inhibitors with relevance to cancer chemotherapy” (Bioorg Med Chem, 2013).

The subject of data set [1] is HUVEC. The data set is described as follows: Antiangiogenic activity against human HUVEC cells assessed as inhibition of capillary tube formation at 300 uM after 24 hrs by phase contrast microscopic analysis. In kind it is functional, cell-based.
The nature of data set [2]: Chemical stability of the compound in DMSO solution at 5 mg/ml after 20 days at 4 degC. It is filed as physicochemical. Conditions: 480 h.
The target in data set [3] is 72 kDa type IV collagenase (Homo sapiens) (UniProt P08253). The data set is described as follows: Inhibition of MMP2 (unknown origin) up to 50 uM.
Chain of 72 kDa type IV collagenase (Homo sapiens) (P08253 110-660 limits assumed): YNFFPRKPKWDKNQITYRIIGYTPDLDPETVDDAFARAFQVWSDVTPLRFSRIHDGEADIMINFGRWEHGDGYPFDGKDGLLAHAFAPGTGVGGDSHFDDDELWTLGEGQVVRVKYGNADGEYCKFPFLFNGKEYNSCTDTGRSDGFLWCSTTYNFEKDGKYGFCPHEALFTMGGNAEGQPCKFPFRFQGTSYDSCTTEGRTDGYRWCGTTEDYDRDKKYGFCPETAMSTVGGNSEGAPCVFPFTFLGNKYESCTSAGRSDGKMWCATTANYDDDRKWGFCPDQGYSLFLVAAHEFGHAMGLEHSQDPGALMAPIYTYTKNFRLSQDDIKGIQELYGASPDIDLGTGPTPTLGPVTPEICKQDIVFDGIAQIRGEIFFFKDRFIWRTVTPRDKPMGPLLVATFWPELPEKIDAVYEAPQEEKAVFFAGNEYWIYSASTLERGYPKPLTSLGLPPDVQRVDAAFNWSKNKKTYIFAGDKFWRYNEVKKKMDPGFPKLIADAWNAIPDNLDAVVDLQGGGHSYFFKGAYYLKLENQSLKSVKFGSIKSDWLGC
The test system of data set [4] is HUVEC. In words: Antimigratory activity against human HUVEC cells at 0.01 uM after 16 hrs by wound healing assay. It is filed as functional, cell-based.
Data set [5] deals with HUVEC. The data set is described as follows: Antimigratory activity against human HUVEC cells at 0.1 to 1 uM after 16 hrs by wound healing assay. It is filed as functional, cell-based.
Data set [6] can be described thus: Antitumor activity against human colon cancer cells expressing high level of APN xenografted in athymic nude mouse at 30 mg/kg, ip administered once every 3 days relative to control. The note with it: Cancer cell lines, 72 h, route intraperitoneal, read-out: TGI. It is filed as functional. On the technique in general: Xenograft models place foreign cells or tissue in a host animal.

Data set [7] in a line: Chemical stability of the compound in DMSO solution at 5 mg/ml after 20 days at -20 degC. It is filed as physicochemical. Conditions: 480 h.
The subject of data set [8] is HUVEC. In words: Antiangiogenic activity against human HUVEC cells assessed as inhibition of capillary tube formation at 1 uM after 24 hrs by phase contrast microscopic analysis. It is filed as functional, cell-based.
Data set [9] has as its system A673. In words: Antiangiogenic activity against human A673 cells xenografted in athymic nude mouse assessed as reduction in microvessel density at 30 mg/kg, ip administered as single dose measured on day 26 relative to control. It is filed as functional, organism-based. More on the design: dose 30 mg/kg.
The nature of data set [10]: Antimigratory activity against human Caco2/TC7 cells at 0.1 uM after 16 hrs by wound healing assay. In kind it is functional, Caco-2.
For data set [11], the target named is Collagenase 3 (Homo sapiens) (UniProt P45452). In words: Inhibition of MMP13 (unknown origin) up to 50 uM.
Data set [12] concerns the target Macrophage metalloelastase (Homo sapiens) (UniProt P39900). In words: Inhibition of MMP12 (unknown origin) up to 50 uM.
A short description of data set [13]: Antimigratory activity against human Caco2/TC7 cells at 1 uM after 16 hrs by wound healing assay. In kind it is functional, Caco-2.
The subject of data set [14] is Mus musculus. The data set is described as follows: Toxicity in Swiss nude mouse assessed as adverse effects at 40 mg/kg, ip administered once every 3 days 8 times measured after 29 days. In kind it is organism-based. Set-up: dose 40 mg/kg, route intraperitoneal. The note with it: in vivo, 696 h.
Data set [15] has as its system A673. In words: Antitumor activity against human A673 cells xenografted in athymic nude mouse assessed as tumor growth inhibition at 30 mg/kg, ip administered as single dose measured on day 26 relative to control. In kind it is functional. The note with it: 624 h, route intraperitoneal, read-out: TGI.
The target in data set [16] is Matrix metalloproteinase-9 (Homo sapiens) (UniProt P14780). The data set is described as follows: Inhibition of MMP9 (unknown origin) up to 50 uM.
Chain of Matrix metalloproteinase-9 (Homo sapiens) (P14780 whole entry): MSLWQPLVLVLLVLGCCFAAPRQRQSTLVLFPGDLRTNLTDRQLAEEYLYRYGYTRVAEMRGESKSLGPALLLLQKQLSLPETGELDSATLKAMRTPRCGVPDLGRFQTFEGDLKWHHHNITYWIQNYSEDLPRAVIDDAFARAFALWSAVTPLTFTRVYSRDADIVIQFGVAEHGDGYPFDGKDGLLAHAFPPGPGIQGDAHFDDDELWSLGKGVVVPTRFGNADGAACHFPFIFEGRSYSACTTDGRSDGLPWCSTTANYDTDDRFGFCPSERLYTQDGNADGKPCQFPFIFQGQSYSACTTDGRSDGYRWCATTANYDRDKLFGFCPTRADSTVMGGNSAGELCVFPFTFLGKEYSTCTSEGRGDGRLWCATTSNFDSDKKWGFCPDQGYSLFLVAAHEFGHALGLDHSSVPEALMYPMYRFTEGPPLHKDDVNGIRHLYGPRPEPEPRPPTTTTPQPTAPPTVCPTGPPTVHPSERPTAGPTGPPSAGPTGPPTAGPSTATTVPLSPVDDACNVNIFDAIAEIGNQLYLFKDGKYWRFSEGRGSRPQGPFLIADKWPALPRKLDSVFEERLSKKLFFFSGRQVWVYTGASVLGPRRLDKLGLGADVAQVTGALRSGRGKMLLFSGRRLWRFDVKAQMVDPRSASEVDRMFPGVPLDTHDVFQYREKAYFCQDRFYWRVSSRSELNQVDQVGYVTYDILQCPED
Data set [17] deals with HUVEC. The data set is described as follows: Antimigratory activity against human HUVEC cells assessed as inhibition of VEGF-induced migration at 1 uM after 16 hrs by Boyden chamber assay. In kind it is functional.
Data set [18] has as its system Caco-2. The data set is described as follows: Antimigratory activity against human Caco2/TC7 cells after 16 hrs by wound healing assay. In kind it is functional, cell-based.
The test system of data set [19] is HUVEC. In words: Antimigratory activity against human HUVEC cells after 16 hrs by wound healing assay. It is filed as functional, cell-based.
The test system of a further data set is HT-29. In words: Antitumor activity against human HT-29 cells expressing low level of APN xenografted in athymic nude mouse at 30 mg/kg, ip administered once every 3 days relative to control. In kind it is functional. The note with it: HT-29, ip, 72 h, route intraperitoneal, read-out: TGI.
Data set [20] is described as follows: Antitumor activity against human colon cancer cells expressing low level of APN xenografted in athymic nude mouse at 30 mg/kg, ip administered once every 3 days relative to control. Conditions: Cancer cell lines, 72 h, route intraperitoneal, read-out: TGI. It is filed as functional.
Data set [21] can be described thus: Cytotoxicity against human HUVEC cells assessed as concentration of compound causing 50% cell death after 24 hrs. The note with it: read-out: Activity. It is filed as cell-based.
Data set [22] can be described thus: Chemical stability of the compound in DMSO solution at 5 mg/ml after 20 days at 25 degC. The note with it: 480 h. In kind it is physicochemical.
Data set [23] has as its target T1, Aminopeptidase N (Mus musculus, UniProt P97449).
T1 sequence (P97449 whole entry): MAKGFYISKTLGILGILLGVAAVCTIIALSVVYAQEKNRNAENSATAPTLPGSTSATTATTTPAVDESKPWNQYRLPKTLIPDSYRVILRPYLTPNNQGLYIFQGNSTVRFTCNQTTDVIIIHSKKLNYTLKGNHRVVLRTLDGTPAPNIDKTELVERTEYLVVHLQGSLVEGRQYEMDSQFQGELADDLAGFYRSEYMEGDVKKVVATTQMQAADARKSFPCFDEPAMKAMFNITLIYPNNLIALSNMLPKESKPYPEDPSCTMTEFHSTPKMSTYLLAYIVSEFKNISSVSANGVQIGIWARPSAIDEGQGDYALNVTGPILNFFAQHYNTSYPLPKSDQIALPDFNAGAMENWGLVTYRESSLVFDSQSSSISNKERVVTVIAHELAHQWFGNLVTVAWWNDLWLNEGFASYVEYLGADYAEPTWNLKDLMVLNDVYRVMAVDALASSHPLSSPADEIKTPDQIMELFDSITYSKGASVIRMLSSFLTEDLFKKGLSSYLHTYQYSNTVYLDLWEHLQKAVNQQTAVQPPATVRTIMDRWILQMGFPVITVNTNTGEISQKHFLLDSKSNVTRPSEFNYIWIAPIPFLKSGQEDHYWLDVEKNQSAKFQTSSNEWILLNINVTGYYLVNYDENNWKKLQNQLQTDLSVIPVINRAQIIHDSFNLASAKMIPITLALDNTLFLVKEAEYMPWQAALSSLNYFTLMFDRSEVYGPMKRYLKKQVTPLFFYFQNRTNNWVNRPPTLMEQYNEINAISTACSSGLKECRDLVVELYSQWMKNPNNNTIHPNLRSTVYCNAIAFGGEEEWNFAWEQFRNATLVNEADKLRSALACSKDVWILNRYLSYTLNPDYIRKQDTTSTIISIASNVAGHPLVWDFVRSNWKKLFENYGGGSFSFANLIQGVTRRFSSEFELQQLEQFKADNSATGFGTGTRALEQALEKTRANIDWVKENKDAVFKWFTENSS
In words: Inhibition of mouse APN using L-leucine-p-nitroanilide as substrate measured every 10 mins for 2 hrs by spectrophotometric analysis.

Data set [24] has as its target T2, Stromelysin-3 (Homo sapiens) (UniProt P24347).
T2 sequence (whole entry): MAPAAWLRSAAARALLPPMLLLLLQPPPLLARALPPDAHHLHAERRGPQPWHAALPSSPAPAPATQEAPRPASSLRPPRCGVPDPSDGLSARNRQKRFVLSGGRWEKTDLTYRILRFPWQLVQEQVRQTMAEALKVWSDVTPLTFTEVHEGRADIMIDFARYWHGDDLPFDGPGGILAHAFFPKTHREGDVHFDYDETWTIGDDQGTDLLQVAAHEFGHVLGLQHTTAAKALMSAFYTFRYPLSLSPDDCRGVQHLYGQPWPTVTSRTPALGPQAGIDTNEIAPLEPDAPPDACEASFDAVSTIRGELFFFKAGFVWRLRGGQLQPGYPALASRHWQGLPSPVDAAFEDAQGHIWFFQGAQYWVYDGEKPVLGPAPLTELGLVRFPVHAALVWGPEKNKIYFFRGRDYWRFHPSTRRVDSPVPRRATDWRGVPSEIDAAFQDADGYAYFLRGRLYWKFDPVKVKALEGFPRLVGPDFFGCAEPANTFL
In words: Inhibition of MMP11 (unknown origin) up to 50 uM.

In data set [25] the test system is Mus musculus. The data set is described as follows: Toxicity in Swiss nude mouse assessed as catalepsy at 70 mg/kg, ip administered once every 3 days 8 times measured post second-dose. In kind it is organism-based. Set-up: dose 70 mg/kg, route intraperitoneal. Conditions: in vivo, 72 h.
In data set [26] the test system is Caco-2. The data set is described as follows: Antimigratory activity against human Caco2/TC7 cells up to 1 uM after 16 hrs by wound healing assay. In kind it is functional, cell-based.
Data set [27] addresses Aminopeptidase N (Homo sapiens, UniProt P15144).
Description: Inhibition of human APN using L-leucine-p-nitroanilide as substrate measured every 10 mins for 2 hrs by spectrophotometric analysis
Data set [28] concerns Mus musculus. The data set is described as follows: Toxicity in Swiss nude mouse assessed as transient body weight loss at 100 mg/kg, ip measured up to 2 days relative to control. Set-up: dose 100 mg/kg, route intraperitoneal. In kind it is organism-based. The note with it: in vivo, 48 h.
Data set [29] deals with Mus musculus. In words: Toxicity in Swiss nude mouse assessed as convulsions at 100 mg/kg, ip administered once every 3 days 4 times measured post second-dose. It is filed as organism-based. Set-up: dose 100 mg/kg, route intraperitoneal. Conditions: in vivo, 72 h.
In data set [30] the test system is A673. The data set is described as follows: Antitumor activity against human A673 cells xenografted in athymic nude mouse assessed as tumor growth inhibition at 40 mg/kg, ip administered as single dose measured on day 26 relative to control. It is filed as functional. Conditions: 624 h, route intraperitoneal, read-out: TGI.
Data set [31] concerns A673. In words: Antiangiogenic activity against human A673 cells xenografted in athymic nude mouse assessed as reduction in microvessel density at 40 mg/kg, ip administered as single dose measured on day 26 relative to control. Set-up: dose 40 mg/kg. It is filed as functional, organism-based.
Data set [32] relates to HUVEC. The data set is described as follows: Antimigratory activity against human HUVEC cells assessed as inhibition of VEGF-induced migration at 0.1 uM after 16 hrs by Boyden chamber assay. In kind it is functional.
Data set [33] has as its system HUVEC. In words: Antiangiogenic activity against human HUVEC cells assessed as inhibition of capillary tube formation at 10 uM after 24 hrs by phase contrast microscopic analysis. It is filed as functional, cell-based.

The term inhibition denotes how much of the control response was suppressed. One may read the Ki as the dissociation constant of the complex between target and ligand, obtained from inhibition or displacement. A low value points to higher affinity.

Molecules are shown by their SMILES. The source made the active and inactive calls. The calls are words filed in the database; no cut-off is given here.

Chain of Macrophage metalloelastase (Homo sapiens) (P39900 106-470 limits assumed): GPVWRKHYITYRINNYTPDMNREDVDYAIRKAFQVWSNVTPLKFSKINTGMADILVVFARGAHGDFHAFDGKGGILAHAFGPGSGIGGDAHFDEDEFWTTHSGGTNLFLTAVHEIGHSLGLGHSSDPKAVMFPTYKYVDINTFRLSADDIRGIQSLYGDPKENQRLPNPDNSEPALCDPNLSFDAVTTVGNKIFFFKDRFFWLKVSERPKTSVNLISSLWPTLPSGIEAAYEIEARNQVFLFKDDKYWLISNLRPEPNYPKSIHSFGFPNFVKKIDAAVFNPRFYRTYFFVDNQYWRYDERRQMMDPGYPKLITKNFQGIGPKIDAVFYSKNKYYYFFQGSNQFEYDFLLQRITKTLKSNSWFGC
Chain of Aminopeptidase N (Homo sapiens, UniProt P15144) (P15144 whole entry): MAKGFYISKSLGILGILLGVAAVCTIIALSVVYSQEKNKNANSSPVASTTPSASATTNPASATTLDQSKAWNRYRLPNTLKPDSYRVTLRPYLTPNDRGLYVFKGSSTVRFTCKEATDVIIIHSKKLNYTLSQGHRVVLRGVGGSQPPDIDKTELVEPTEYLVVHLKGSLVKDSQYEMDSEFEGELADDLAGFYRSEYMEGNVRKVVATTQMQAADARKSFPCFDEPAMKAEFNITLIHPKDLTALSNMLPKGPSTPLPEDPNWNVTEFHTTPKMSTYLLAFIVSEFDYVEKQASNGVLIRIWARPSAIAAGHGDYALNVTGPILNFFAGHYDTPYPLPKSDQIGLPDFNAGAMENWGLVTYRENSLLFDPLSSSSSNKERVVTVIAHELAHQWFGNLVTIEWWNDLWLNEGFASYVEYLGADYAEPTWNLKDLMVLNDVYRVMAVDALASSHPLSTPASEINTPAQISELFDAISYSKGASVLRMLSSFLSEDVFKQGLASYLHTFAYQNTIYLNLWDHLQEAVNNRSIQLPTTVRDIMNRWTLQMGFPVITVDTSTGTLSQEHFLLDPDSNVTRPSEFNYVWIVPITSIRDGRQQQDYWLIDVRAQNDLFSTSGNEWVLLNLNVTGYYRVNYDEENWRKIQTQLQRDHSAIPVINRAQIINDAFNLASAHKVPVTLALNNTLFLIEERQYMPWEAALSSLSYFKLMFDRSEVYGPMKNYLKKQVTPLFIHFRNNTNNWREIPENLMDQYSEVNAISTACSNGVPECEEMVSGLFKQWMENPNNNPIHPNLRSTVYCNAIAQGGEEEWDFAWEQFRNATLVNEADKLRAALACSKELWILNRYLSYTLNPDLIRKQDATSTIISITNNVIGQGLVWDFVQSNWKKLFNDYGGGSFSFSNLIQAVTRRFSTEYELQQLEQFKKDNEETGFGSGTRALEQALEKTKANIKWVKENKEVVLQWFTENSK

As to `CC(C)C[C@H](NC(=O)[C@@H](O)[C@H](N)Cc1ccccc1)C(=O)O`, in the data set with HUVEC [1], the inhibition result was “Active”.
Regarding `NC1CCc2c(Br)ccc(-c3ccccc3)c2CC1=O` (stereo unspecified), the Stability entry in [2], in [7] and in [22] was “Stable” throughout. The inhibition entry in data set [3], in data set [11], in data set [12], in data set [16] and in data set [24] was “inactive” in each case. Moreover, the result in the data set on HUVEC [4], with HUVEC [5] and in the data set with A673 [9] was Active. Besides, the inhibition in vivo at 30 mg/kg in data set [6] worked out at 26%; in the data set on A673 [15], 44%; with HT-29, 15%; in [20] it was 8%. In addition, in the data set on HUVEC [8], the inhibition entry was “Active”. The Activity was 30% in data set [10]; 40% in [13]; “Non-toxic” in the data set on Mus musculus [14]; “Dose-dependent effect” with Caco-2 [18]; “Dose-dependent effect” in the data set on HUVEC [19]. Also, the inhibition at 1 µM in the data set on HUVEC [17] was 70%. In [21], the CC50 at 24 h was 10000 nM. In addition, the Ki at Aminopeptidase N [23] amounted to 0.2 nM.
As to `Cl.NC1CCc2cccc(-c3ccccc3)c2CC1=O` (stereo unspecified), the Stability entry in data set [2], in [7] and in data set [22] was “Stable” throughout. The inhibition result in [3], in [11], in data set [12], in [16] and in [24] was “inactive” throughout. For the same compound, the outcome with HUVEC [5] was Active. The Activity entry was “Toxic” in the data set on Mus musculus [25]; “Non-toxic” with Mus musculus [14]; “Dose-dependent effect” in the data set on Caco-2 [18]; “Toxic” in the data set with Mus musculus [28]; “Toxic” in the data set on Mus musculus [29]; “Dose-dependent effect” with HUVEC [19]. Further, the inhibition result in the data set with HUVEC [8] was “Active”. Further, the result in the data set on Caco-2 [26] and with A673 [31] was inactive. Moreover, the results for the Ki at Aminopeptidase N [27] and at Aminopeptidase N [23] were 11 nM and 10 nM, respectively. Moreover, the inhibition in vivo at 40 mg/kg in the data set with A673 [30] is 18%. Besides, the CC50 at 24 h in [21] came to 20000 nM. Moreover, in the data set with HUVEC [32], the inhibition at 0.1 µM came to 70%.
`NC1CCc2ccccc2CC1=O` (stereo unspecified): the inhibition entry in data set [3], in data set [11], in data set [12], in data set [16] and in data set [24] was “inactive” throughout. Moreover, the inhibition constant Ki at Aminopeptidase N [27] amounted to 2000 nM. Moreover, in the data set with HUVEC [33], the inhibition entry is “Active”. Besides, the CC50 at 24 h in data set [21] came to 100000 nM.
